Measurements published in the NIST ThermoML archive (doi:10.1016/j.fluid.2014.04.002).

What was measured:
[1] = refractive index (Na D-line) (dimensionless); details: 101.33 kPa, Liquid, Standard Abbe refractometry
[2] = 101 kPa, Liquid; for viscosity: Concentric cylinders viscometry; for mass density: Vibrating tube method
[3] = refractive index (Na D-line) (dimensionless); xn = mol fraction of the nth substance listed; details: 101 kPa, Liquid, Standard Abbe refractometry
[4] = xn = mol fraction of the nth substance listed; details: 101 kPa, Liquid; for viscosity: Concentric cylinders viscometry; for mass density: Vibrating tube method

CCOC(=O)C(C)O (racemic) [DL-ethyl lactate]
Details | mass density, [2] [kg/m3] | refractive index, [1] | viscosity, [2] [mPa·s]
288.15 K | 1039.28 | 1.41537 | 3.207
293.15 K | 1033.84 | 1.41307 | 2.75
298.15 K | 1028.39 | 1.41076 | 2.39
303.15 K | 1022.92 | 1.40843 | 2.097
308.15 K | 1017.42 | 1.4061 | 1.858
313.15 K | 1011.9 | 1.40374 | 1.658
318.15 K | 1006.36 | 1.40136 | 1.491
323.15 K | 1000.79 | 1.39898 | 1.349

CC(O)CO (stereo unspecified) [1,2-propanediol]
Details | mass density, [2] [kg/m3] | refractive index, [1] | viscosity, [2] [mPa·s]
288.15 K | 1039.87 | 1.43437 | 82.54
293.15 K | 1036.25 | 1.4327 | 56.62
298.15 K | 1032.59 | 1.43102 | 44.03
303.15 K | 1028.88 | 1.42934 | 33.16
308.15 K | 1025.14 | 1.42764 | 25.45
313.15 K | 1021.35 | 1.42591 | 19.85
318.15 K | 1017.52 | 1.4242 | 15.73
323.15 K | 1013.66 | 1.42246 | 12.64

CC(O)CO (stereo unspecified) [1,2-propanediol] + CCOC(=O)C(C)O
x2 = 0
Details | mass density, [4] [kg/m3] | refractive index, [3] | viscosity, [4] [mPa·s]
288.15 K | 1039.87 | 1.43437 | 82.54
293.15 K | 1036.25 | 1.4327 | 56.62
298.15 K | 1032.59 | 1.43102 | 44.03
303.15 K | 1028.88 | 1.42934 | 33.16
308.15 K | 1025.14 | 1.42764 | 25.45
313.15 K | 1021.35 | 1.42591 | 19.85
318.15 K | 1017.52 | 1.4242 | 15.73
323.15 K | 1013.66 | 1.42246 | 12.64

COCCOCCOCCOCCOC [2,5,8,11,14-pentaoxapentadecane]
Details | mass density, [2] [kg/m3] | refractive index, [1] | viscosity, [2] [mPa·s]
288.15 K | 1016.7 | 1.43553 | 4.353
293.15 K | 1012.06 | 1.43338 | 3.795
298.15 K | 1007.42 | 1.43123 | 3.348
303.15 K | 1002.79 | 1.42906 | 2.983
308.15 K | 998.153 | 1.42697 | 2.668
313.15 K | 993.523 | 1.42447 | 2.407
318.15 K | 988.892 | 1.42206 | 2.185
323.15 K | 984.262 | 1.41985 | 2.003

CCOC(=O)C(C)O (stereo not drawn) [DL-ethyl lactate] + COCCOCCOCCOCCOC
x1 = 1
Details | mass density, [4] [kg/m3] | refractive index, [3] | viscosity, [4] [mPa·s]
288.15 K | 1039.28 | 1.41537 | 3.207
293.15 K | 1033.84 | 1.41307 | 2.75
298.15 K | 1028.39 | 1.41076 | 2.39
303.15 K | 1022.92 | 1.40843 | 2.097
308.15 K | 1017.42 | 1.4061 | 1.858
313.15 K | 1011.9 | 1.40374 | 1.658
318.15 K | 1006.36 | 1.40136 | 1.491
323.15 K | 1000.79 | 1.39898 | 1.349

OCCCO [propan-1,3-diol]
Details | mass density, [2] [kg/m3] | refractive index, [1] | viscosity, [2] [mPa·s]
288.15 K | 1055.89 | 1.44091 | 67.3
293.15 K | 1052.8 | 1.43949 | 52.52
298.15 K | 1049.69 | 1.43808 | 41.51
303.15 K | 1046.57 | 1.43667 | 33.2
308.15 K | 1043.43 | 1.43526 | 26.86
313.15 K | 1040.28 | 1.43384 | 21.97
318.15 K | 1037.11 | 1.43243 | 18.14
323.15 K | 1033.91 | 1.43101 | 15.2

OCCCO [propan-1,3-diol] + CCOC(=O)C(C)O
x2 = 0
Details | mass density, [4] [kg/m3] | refractive index, [3] | viscosity, [4] [mPa·s]
288.15 K | 1055.89 | 1.44091 | 67.3
293.15 K | 1052.8 | 1.43949 | 52.52
298.15 K | 1049.69 | 1.43808 | 41.51
303.15 K | 1046.57 | 1.43667 | 33.2
308.15 K | 1043.43 | 1.43526 | 26.86
313.15 K | 1040.28 | 1.43384 | 21.97
318.15 K | 1037.11 | 1.43243 | 18.14
323.15 K | 1033.91 | 1.43101 | 15.2

C1CCOC1 [tetrahydrofuran]
Details | mass density, [2] [kg/m3] | refractive index, [1] | viscosity, [2] [mPa·s]
288.15 K | 893.293 | 1.41005 | 0.5252
293.15 K | 887.865 | 1.40737 | 0.5048
298.15 K | 882.403 | 1.40472 | 0.4847
303.15 K | 876.911 | 1.40203 | 0.464
308.15 K | 871.384 | 1.39931 | 0.4433
313.15 K | 865.82 | 1.39659 | 0.4227
318.15 K | 860.213 | 1.3938 | 0.4005
323.15 K | 854.558 | 1.39098 | 0.3636

C1CCOC1 [tetrahydrofuran] + CCOC(=O)C(C)O
x2 = 0
Details | mass density, [4] [kg/m3] | refractive index, [3] | viscosity, [4] [mPa·s]
288.15 K | 893.293 | 1.41005 | 0.5252
293.15 K | 887.865 | 1.40737 | 0.5048
298.15 K | 882.403 | 1.40472 | 0.4847
303.15 K | 876.911 | 1.40203 | 0.464
308.15 K | 871.384 | 1.39931 | 0.4433
313.15 K | 865.82 | 1.39659 | 0.4227
318.15 K | 860.213 | 1.3938 | 0.4005
323.15 K | 854.558 | 1.39098 | 0.3636
